In PubChem BioAssay (NCI):
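All cell lines were grown in 96-well plates and treated with compound for 48 hours. GI50: concentration for 50% inhibition of growth. TGI denotes the concentration required for complete inhibition of growth.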

system: DLD-1 colon; assay: inhibition of tumour cell growth, NCI panel, 48 h

`CCOC(=O)C(Sc1ccccc1)c1c(OC)cc(=O)oc1/C=[N+](/[O-])c1ccc(N(C)C)cc1` (configuration not stated) and `COc1ccc2nc3cc(Cl)ccc3c(Sc3ccccc3[N+](=O)[O-])c2c1` cannot be ordered by TGI: over 100 µM for the first, over 100 µM for the second.

`C/C(CCn1[nH]c(=O)ccc1=O)=N\O` and `COc1ccccc1NC(=O)CC(=O)n1nc(C)c(N=Nc2ccccc2C(=O)O)c1C` cannot be ordered by TGI: over 100 µM for the first, over 100 µM for the second.

`CC1(C)COC(c2ccc(C(F)(F)F)cc2C(O)c2ccc3ccccc3c2)=N1` (configuration not stated) and `CC(=O)OC1COC(n2c(=S)n(-c3ccc(C)cc3)c(=O)c3ccccc32)C(OC(C)=O)C1OC(C)=O` (configuration not stated) cannot be ordered by TGI: over 10 µM for the first, over 100 µM for the second.

First: COc1ccc(/C=C\c2cc(OC)c3c(c2)OCO3)c(O)c1O
Second: CCNC1C2(CCCCC2)NC(=O)C12CCCCC2 (configuration not stated)
The TGI of the first is lower: 23 µM for the first, over 100 µM for the second.

system: DMS 273 small cell lung; assay: inhibition of tumour cell growth, NCI panel, 48 h

Compared with `CCOC(=O)C(Sc1ccccc1)c1c(OC)cc(=O)oc1/C=[N+](/[O-])c1ccc(N(C)C)cc1` (configuration not stated), `COc1ccc2nc3cc(Cl)ccc3c(Sc3ccccc3[N+](=O)[O-])c2c1` is higher in TGI: 29 µM for the first, over 100 µM for the second.

`C/C(CCn1[nH]c(=O)ccc1=O)=N\O` and `COc1ccccc1NC(=O)CC(=O)n1nc(C)c(N=Nc2ccccc2C(=O)O)c1C` cannot be ordered by TGI: over 100 µM for the first, over 100 µM for the second.

`CC1(C)COC(c2ccc(C(F)(F)F)cc2C(O)c2ccc3ccccc3c2)=N1` (configuration not stated) and `CC(=O)OC1COC(n2c(=S)n(-c3ccc(C)cc3)c(=O)c3ccccc32)C(OC(C)=O)C1OC(C)=O` (configuration not stated) cannot be ordered by TGI: over 100 µM for the first, over 100 µM for the second.

`COc1ccc(/C=C\c2cc(OC)c3c(c2)OCO3)c(O)c1O` and `CCNC1C2(CCCCC2)NC(=O)C12CCCCC2` (configuration not stated) cannot be ordered by TGI: over 100 µM for the first, over 100 µM for the second.

Work on `CC1(C)COC(c2ccc(C(F)(F)F)cc2C(O)c2ccc3ccccc3c2)=N1` (configuration not stated) yielded a GI50 of over 100 µM.

system: KM20L2 colon; assay: inhibition of tumour cell growth, NCI panel, 48 h

Going from `CCOC(=O)C(Sc1ccccc1)c1c(OC)cc(=O)oc1/C=[N+](/[O-])c1ccc(N(C)C)cc1` (configuration not stated) to `COc1ccc2nc3cc(Cl)ccc3c(Sc3ccccc3[N+](=O)[O-])c2c1`, the TGI rises from 89.2 µM to over 100 µM.

`C/C(CCn1[nH]c(=O)ccc1=O)=N\O` and `COc1ccccc1NC(=O)CC(=O)n1nc(C)c(N=Nc2ccccc2C(=O)O)c1C` cannot be ordered by TGI: over 100 µM for the first, over 100 µM for the second.

`CC1(C)COC(c2ccc(C(F)(F)F)cc2C(O)c2ccc3ccccc3c2)=N1` (configuration not stated) and `CC(=O)OC1COC(n2c(=S)n(-c3ccc(C)cc3)c(=O)c3ccccc32)C(OC(C)=O)C1OC(C)=O` (configuration not stated) cannot be ordered by TGI: over 100 µM for the first, over 100 µM for the second.

First: COc1ccc(/C=C\c2cc(OC)c3c(c2)OCO3)c(O)c1O
Second: CCNC1C2(CCCCC2)NC(=O)C12CCCCC2 (configuration not stated)
The TGI of the first is lower: 61.5 µM for the first, over 100 µM for the second.

`CC1(C)COC(c2ccc(C(F)(F)F)cc2C(O)c2ccc3ccccc3c2)=N1` (configuration not stated) showed a GI50 of over 100 µM.

system: M19-MEL melanoma; assay: inhibition of tumour cell growth, NCI panel, 48 h

First: CCOC(=O)C(Sc1ccccc1)c1c(OC)cc(=O)oc1/C=[N+](/[O-])c1ccc(N(C)C)cc1 (configuration not stated)
Second: COc1ccc2nc3cc(Cl)ccc3c(Sc3ccccc3[N+](=O)[O-])c2c1
The TGI of the first is lower: 37.5 µM for the first, over 100 µM for the second.

`C/C(CCn1[nH]c(=O)ccc1=O)=N\O` and `COc1ccccc1NC(=O)CC(=O)n1nc(C)c(N=Nc2ccccc2C(=O)O)c1C` cannot be ordered by TGI: over 100 µM for the first, over 100 µM for the second.

`CC1(C)COC(c2ccc(C(F)(F)F)cc2C(O)c2ccc3ccccc3c2)=N1` (configuration not stated) and `CC(=O)OC1COC(n2c(=S)n(-c3ccc(C)cc3)c(=O)c3ccccc32)C(OC(C)=O)C1OC(C)=O` (configuration not stated) cannot be ordered by TGI: over 100 µM for the first, over 100 µM for the second.

Going from `COc1ccc(/C=C\c2cc(OC)c3c(c2)OCO3)c(O)c1O` to `CCNC1C2(CCCCC2)NC(=O)C12CCCCC2` (configuration not stated), the TGI rises from 31.1 µM to over 100 µM.

In the case of `CC1(C)COC(c2ccc(C(F)(F)F)cc2C(O)c2ccc3ccccc3c2)=N1` (configuration not stated), the GI50 was over 100 µM.

system: SNB-78 CNS; assay: inhibition of tumour cell growth, NCI panel, 48 h

Compared with `CCOC(=O)C(Sc1ccccc1)c1c(OC)cc(=O)oc1/C=[N+](/[O-])c1ccc(N(C)C)cc1` (configuration not stated), `COc1ccc2nc3cc(Cl)ccc3c(Sc3ccccc3[N+](=O)[O-])c2c1` is higher in TGI: 78.9 µM for the first, over 100 µM for the second.

`C/C(CCn1[nH]c(=O)ccc1=O)=N\O` and `COc1ccccc1NC(=O)CC(=O)n1nc(C)c(N=Nc2ccccc2C(=O)O)c1C` cannot be ordered by TGI: over 100 µM for the first, over 100 µM for the second.

`CC1(C)COC(c2ccc(C(F)(F)F)cc2C(O)c2ccc3ccccc3c2)=N1` (configuration not stated) and `CC(=O)OC1COC(n2c(=S)n(-c3ccc(C)cc3)c(=O)c3ccccc32)C(OC(C)=O)C1OC(C)=O` (configuration not stated) cannot be ordered by TGI: over 100 µM for the first, over 100 µM for the second.

Going from `COc1ccc(/C=C\c2cc(OC)c3c(c2)OCO3)c(O)c1O` to `CCNC1C2(CCCCC2)NC(=O)C12CCCCC2` (configuration not stated), the TGI rises from 16 µM to over 100 µM.

`CC1(C)COC(c2ccc(C(F)(F)F)cc2C(O)c2ccc3ccccc3c2)=N1` (configuration not stated) showed a GI50 of over 10 µM.

system: XF 498 CNS; assay: inhibition of tumour cell growth, NCI panel, 48 h

Compared with `CCOC(=O)C(Sc1ccccc1)c1c(OC)cc(=O)oc1/C=[N+](/[O-])c1ccc(N(C)C)cc1` (configuration not stated), `COc1ccc2nc3cc(Cl)ccc3c(Sc3ccccc3[N+](=O)[O-])c2c1` is 3.5-fold higher in TGI: 27.7 µM for the first, 97.8 µM for the second.

`C/C(CCn1[nH]c(=O)ccc1=O)=N\O` and `COc1ccccc1NC(=O)CC(=O)n1nc(C)c(N=Nc2ccccc2C(=O)O)c1C` cannot be ordered by TGI: over 100 µM for the first, over 100 µM for the second.

`CC1(C)COC(c2ccc(C(F)(F)F)cc2C(O)c2ccc3ccccc3c2)=N1` (configuration not stated) and `CC(=O)OC1COC(n2c(=S)n(-c3ccc(C)cc3)c(=O)c3ccccc32)C(OC(C)=O)C1OC(C)=O` (configuration not stated) cannot be ordered by TGI: over 100 µM for the first, over 100 µM for the second.

Compared with `COc1ccc(/C=C\c2cc(OC)c3c(c2)OCO3)c(O)c1O`, `CCNC1C2(CCCCC2)NC(=O)C12CCCCC2` (configuration not stated) is higher in TGI: 26.6 µM for the first, over 100 µM for the second.
